Experimental data reported in patent US20100273783A1, “Compositions and Methods for Treating and Preventing Overactive Bladder and Conditions Associated Therewith” (OPTMED, INC., priority 2009, published 2010).
Where two headings read alike, the source gives them in different places.

What was measured:
[1] = cited from earlier work; for adverse effects stated in the background text: no dose given
M-1 receptors = biological target: T1, M-1 receptors (Homo sapiens, UniProt P11229); details: cited from earlier work
T1 sequence (P11229 1-460): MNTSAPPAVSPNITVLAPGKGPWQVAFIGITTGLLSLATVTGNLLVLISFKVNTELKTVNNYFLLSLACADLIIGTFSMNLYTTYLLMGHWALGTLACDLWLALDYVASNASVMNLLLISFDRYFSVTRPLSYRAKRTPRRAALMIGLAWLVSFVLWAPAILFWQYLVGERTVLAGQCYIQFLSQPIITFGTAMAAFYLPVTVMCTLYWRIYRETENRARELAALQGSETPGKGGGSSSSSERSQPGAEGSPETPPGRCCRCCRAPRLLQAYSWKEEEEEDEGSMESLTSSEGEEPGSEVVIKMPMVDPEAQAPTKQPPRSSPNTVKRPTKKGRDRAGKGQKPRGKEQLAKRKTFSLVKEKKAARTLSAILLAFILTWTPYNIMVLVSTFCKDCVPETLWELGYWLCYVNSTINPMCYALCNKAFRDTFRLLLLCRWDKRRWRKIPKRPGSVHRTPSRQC

anesthetized rats = experiment: Cystometries (isovolumetric bladder contractions) in anesthetized rats; type: in vivo
Protocol: Effect of diazepam administered intravenously and intravaginally on cystometries in anesthetized rats.
Methods: Female rats were anesthetized with urethane (1.3 g/kg intraperitoneally) given as a divided dose of 80% initially and 20% 15 minutes later. Body temperature was maintained at 37±2° C. throughout the experiment. A catheter was inserted into the bladder through the urethra. Then, the urethra was ligated at the level of the urinary meatus. After an abdominal incision, the ureters were also ligated. The jugular vein was catheterized to allow administration of test compounds. The bladder catheter was connected via a T-tube to a strain gauge to measure intravesicular pressure. Isovolumetric bladder contractions were induced by stepwise injections of physiological saline at room temperature (100 μl every 5 min) until stable rhythmic bladder contractions occurred. After stabilization and a control period of at least 30 min, characterized by stable and reproducible bladder contractions (used as basal values), test substance or vehicle was administered i.v. (as a bolus under a volume of 200 μl) or i.vag. (under a volume of 100 μl using a syringe). The drug effects were evaluated for 1 hour following the end of administration. Each animal received one dose of one test substance.

overactive bladder (OAB) = experiment: Case reports of subjects with OAB treated with local diazepam; type: in vivo, human
Protocol: A person had been suffering from symptoms consistent with OAB for several months. Following a confirmatory diagnosis of OAB, the subject was instructed to use vaginal suppositories containing 20 mg of diazepam in a glycerine base three times a day. […] The subject continues to do well on a maintenance dose of 20 mg once or twice a day.
A person had been suffering from symptoms consistent with OAB for several months. A diagnosis of OAB was confirmed by an urologist. A nurse then administered intraurethrally to the subject 2 ml of a gel formulation containing 10 mg/ml of diazepam in 2% methylcellulose, providing a total dose of 20 mg of diazepam. […] This subject is able to treat themself at home using the same type of formulation and the same route of administration up to 3 times per day as needed.
His symptoms were not relieved with high doses of oral diazepam but were well-controlled by intraurethral instillations of 2 ml of diazepam in a gel formulation containing 10 mg/ml of diazepam in hydroethylcellulose, providing a total of 20 mg of diazepam administered at bedtime.
A person with advanced dementia suffered from OAB symptoms including nocturia and urge incontinence. Despite the use of incontinence pads, the subject would frequently arise throughout the night without requesting assistance to go the bathroom. This led to numerous falls.

[2] = in vivo; cited from earlier work
[3] = intravaginal, vs basal values, through 30 minutes post administration
[4] = Example 6, intraurethral 1 ml gel 20 mg/ml in 3% hydroxyethylcellulose three times per day

**Q.** What does the source list for `NC(=O)C(c1ccccc1)(c1ccccc1)[C@@H]1CCN(CCc2ccc3c(c2)CCO3)C1` [darifenacin]?
**A.** Adverse Events ([1]; 7.5 mg per day, constipation): constipation; Adverse Events ([1]; 7.5 mg per day, dry mouth): dry mouth; Adverse Events ([1]; 15 mg per day, constipation): constipation; Adverse Events ([1]; 15 mg per day, dry mouth): dry mouth; Adverse Events ([1]; 15 mg per day, dyspepsia): dyspepsia; affinity for M-1 receptors (M-1 receptors): reduced affinity for M-1 receptors

**Q.** For `CN1C(=O)CN=C(c2ccccc2)c2cc(Cl)ccc21` [diazepam, 7-chloro-1,3-dihydro-1-methyl-5-phenyl-2H-1,4-benzodiazepin-2-one], which “reductions in micturition frequency and amplitude, intravaginal compared with intravenous” value (anesthetized rats; intravaginal vs intravenous administration) is on record?
**A.** comparable to those achieved by intraveneous administration

**Q.** What about the “micturition amplitude (threshold for voiding)” value (anesthetized rats; [3]) of the same molecule?
**A.** significant reductions

**Q.** And the micturition frequency (anesthetized rats; [3])?
**A.** significant reductions

**Q.** What about the “symptoms of urgency, frequency and incontinence” value (overactive bladder (OAB); Example 3, person, vaginal suppositories 20 mg in glycerine base three times a day) of the same molecule?
**A.** greatly reduced

**Q.** And the cognitive impairment (overactive bladder (OAB); Example 3, vaginal suppositories 20 mg in glycerine base three times a day)?
**A.** No cognitive impairment was observed or reported

**Q.** What about the cognitive impairment (overactive bladder (OAB); Example 4, intraurethral 2 ml gel 10 mg/ml in 2% methylcellulose (20 mg)) of the same molecule?
**A.** without causing any observable cognitive impairment

**Q.** What about the OAB symptoms (overactive bladder (OAB); Example 4, person, intraurethral 2 ml gel 10 mg/ml in 2% methylcellulose (20 mg)) of the same molecule?
**A.** reduced OAB symptoms significantly

**Q.** And the adverse effects (overactive bladder (OAB); Example 5, intraurethral 2 ml gel 10 mg/ml (20 mg) at bedtime)?
**A.** did not suffer any adverse effects

**Q.** What about the “symptoms (nocturia, nighttime urinary incontinence)” value (overactive bladder (OAB); Example 5, intraurethral 2 ml gel 10 mg/ml in hydroethylcellulose (20 mg) at bedtime) of the same molecule?
**A.** well-controlled

**Q.** What about the “symptoms (nocturia, nighttime urinary incontinence)” value (overactive bladder (OAB); Example 5, person, high doses of oral diazepam) of the same molecule?
**A.** not relieved

**Q.** And the adverse effects (overactive bladder (OAB); [4])?
**A.** no apparent adverse effects

**Q.** What about the cognitive impairment (overactive bladder (OAB); [4]) of the same molecule?
**A.** without causing cognitive impairment

**Q.** What about the daytime urgency (overactive bladder (OAB); [4]) of the same molecule?
**A.** reduced daytime urgency

**Q.** What about the nighttime falls (overactive bladder (OAB); [4]) of the same molecule?
**A.** near-absence of nighttime falls

**Q.** And the “nocturia (sleep through the night)” value (overactive bladder (OAB); [4])?
**A.** able to sleep in bed throughout the night without arising to urinate

**Q.** What about the cognitive impairments (overactive bladder (OAB); Example 6, person, oral antimuscarinic and oral diazepam) of the same molecule?
**A.** led to cognitive impairments which increased the number of falls from bed

**Q.** Which “Adverse Events” value ([1]; 4 mg or 8 mg QD, constipation) does the source give for `CC(C)C(=O)Oc1ccc(CO)cc1[C@H](CCN(C(C)C)C(C)C)c1ccccc1` [fesoterodine] here?
**A.** constipation

**Q.** And the “Adverse Events” value ([1]; 4 mg or 8 mg QD, dry mouth)?
**A.** dry mouth

**Q.** And the “Adverse Events” value ([1]; 4 mg or 8 mg QD, urinary tract infection)?
**A.** urinary tract infection

**Q.** What about the “adverse effects stated in the background text” value [1] of the same molecule?
**A.** associated with constipation, dry mouth and sometimes urinary tract infection

**Q.** Which “Adverse Events” value ([1]; 3.9 mg transdermal per day, dry mouth) does the source give for `CCN(CC)CC#CCOC(=O)C(O)(c1ccccc1)C1CCCCC1` (stereo not drawn) [oxybutynin chloride] here?
**A.** dry mouth

**Q.** What about the “Adverse Events” value ([1]; 3.9 mg transdermal per day, erythema) of the same molecule?
**A.** erythema

**Q.** What about the “Adverse Events” value ([1]; 3.9 mg transdermal per day, pruritis) of the same molecule?
**A.** pruritis

**Q.** What about the “adverse effects stated in the background text” value [1] of the same molecule?
**A.** highly associated with adverse cognitive effects and effects on sleep architecture and quality

**Q.** What does the source list for `O=C(O[C@H]1C[C@H]2CC[C@@H](C1)[N+]21CCCC1)C(O)(c1ccccc1)c1ccccc1` [trospium chloride]?
**A.** fraction excreted completely active [2]: 60%; Adverse Events ([1]; 20 mg × 2 per day, constipation): constipation; Adverse Events ([1]; 20 mg × 2 per day, dry mouth): dry mouth
